Measurements reported in patent US12678498B2, “FGFR/PD-1 combination therapy for the treatment of cancer” (ASTEX THERAPEUTICS LTD, priority 2015, dated 2026).

Key:
[1] = test system: peripheral blood mononuclear cells (PBMCs) from normal donors; assay: Immune cell viability of PBMCs by CellTiter-Glo; type: cell-based; conditions: increasing concentrations up to 1 μM, days 1, 2, 5 and 6
Method: To determine the effects of JNJ427564493 on immune cell viability in vitro, peripheral blood mononuclear cells (PBMCs) from normal donors were stimulated with anti-CD3 antibodies to activate T cells, in the presence of increasing concentrations of JNJ42756493. Unstimulated PBMCs were also included to determine if JNJ42756493 affected unactivated immune populations. Cell viability was assessed at four different time points, over 6 days.

[2] = test system: PBMCs from CMV-reactive donors stimulated with CMV antigen; assay: Cytomegalovirus antigen assay (CMV), IFN-γ in supernatant by MSD; type: cell-based; conditions: JNJ42756493 alone at 100, 1 or 0.01 nM; 6 days after treatment
Method: FIG. 5 illustrates the effect of JNJ42756493 on IFN-γ levels induced by anti-PD-1 antibodies in a Cytomegalovirus antigen assay (CMV) Assay. Peripheral blood mononuclear cells (PMBCs) were stimulated with CMV antigen and treated with anti-PD-1 antibodies (concentration left to right—30, 10, 3.33, 1.11, 0.37, 0.12 nM) as indicated. JNJ42756493 was added at 100, 1, or 0.01 nM alone (concentrations left to right), together with anti-PD-1 antibodies (100, 1, or 0.01 nM JNJ42756493 together with 30, 10, 3.33, 1.11, 0.37, or 0.12 nM of anti-PD-1 antibody), or in the presence of isotype control (IC). 6 days after treatment, IFN-γ levels in the supernatant were measured by MSD.
In the CMV assay, PBMCs from CMV-reactive donors were stimulated by the addition of CMV antigen. CMV-reactive T cells are active, expand and secrete pro-inflammatory cytokines such as IFN-γ. […] In contrast, JNJ42756493 alone had no impact on cytokine levels (FIG. 5, JNJ-493 alone).

How did the “cell viability (luminescence signal)” value ([1]; PBMCs stimulated with anti-CD3 antibodies) turn out when `COc1cc(OC)cc(N(CCNC(C)C)c2ccc3ncc(-c4cnn(C)c4)nc3c2)c1` [JNJ42756493, N-(3,5-dimethoxyphenyl)-N′-(1-methylethyl)-N-[3-(1-methyl-1H-pyrazol-4-yl)quinoxalin-6-yl]ethane-1,2-diamine] was run?
Its value is “remained constant”.

And the “cell viability (luminescence signal)” value ([1]; unstimulated PBMCs)?
The value was “remained constant”.

And the “cytokine (IFN-γ) levels” value [2]?
Its value is “no impact”.
